Data as given in US20100048462A1, “TRUNCATED PTH PEPTIDES WITH A CYCLIC CONFORMATION” (Zealand Pharma A/S, priority 2006, published 2010).
Square brackets hold non-standard residues; d marks the D form. Peptide text beside a SMILES is read from it. hArg = N=C(N)NCCCC[C@H](N)C(=O)O; Ac5c = NC1(C(=O)O)CCCC1; Aib = CC(C)(N)C(=O)O

Tests used:
CYP2D6 [1] = target: T1, CYP2D6 (Homo sapiens, UniProt P10635); test: CYP2D6 inhibition in pooled human liver microsomes; assay type: in vitro ADME; parameters: Pooled human liver microsomes (HLM, final concentration 0.05 mg protein/mL); tissue BD Biosciences 452161; host or cells: pooled human liver microsomes; conditions: 10 μM compound, dextrorphan formation rate
Experimental: Stock solutions of the test compounds (1 mM) were prepared in 50% isopropanol or 20% DMSO. Pooled human liver microsomes (HLM, final concentration 0.05 mg protein/mL) were mixed with phosphate buffer (0.1 M potassium phosphate, pH 7.4), CYP2D6 substrate (dextrometrorphan, 5 μM final concentration) and test compound (10 μM), quinidine (0.5 μM) or vehicle (0.2% DMSO or 0.5% isopropanol). The mixture was preincubated for 5 min at 37° C. prior to initiation of the reaction addition of a NADPH regenerating mixture (Final concentration: 1.25 mM NADP^+, 3.3 mM Glucose-6-phosphate, 3.3 mM MgCL2 and 0.4 U/mL glucose-6-phosphat dehydrogenase). After 5 minutes the reaction was stopped by addition of 0.25 volume stop reagent (94% acetonitrile, 6% acetic acid). Each experiment was performed in duplicate or triplicate.
The quantification of CYP2D6 product (dextrorphan) was performed by LC/MS/MS. After centrifugation for 5 min at 10.000 g, 40 μL of the supernatant was injected onto a C8 RP-HPLC column (XterraMS, C8, […], 50×2.1 mm). Dextrorphan was eluted by a linear gradient from 0 to 90% acetonitrile in 0.1% formic acid over 4 min using a flow rate of 0.15 ml/min. The concentration of dextrorphan in the reaction mixture was estimated from the peak area of the MS/MS transition (m/z 258.1>199) using an external calibration curve (Table 8).
The CYP2D6 activity in HLM was calculated as the metabolite formation rate: […]
Where, v is the formation rate, [metabolite] is the detected concentration of dextrorphan (pmol/mL) at the time (t, min) and [protein] is the protein concentration (mg/mL) in the reaction mixture. The influence of the test compounds on the CYP2D6 activity was calculated as % of the activity measured when incubated with the vehicle. The effect of CYP2D6 inhibitor (quinidine) was included as inhibition control within each batch analysis. A reduction in CYP2D6 activity to less than 70% of the vehicle control was considered significant.

Saos-2 PTH1R [2] = target: T2, Saos-2 PTH1R (Homo sapiens, UniProt Q03431); test: cAMP-efficacy assay in Saos-2 cells; assay type: cell-based; conditions: for EC50: cAMP, 100 μM IBMX, 37° C. 15 min, suffix of label = salt tested; for Emax ± SEM: relative effect to the control (SEQ ID NO: 32)
T2 construct: endogenous in cells; host or cells: Saos-2
T2 sequence (Q03431 27-593): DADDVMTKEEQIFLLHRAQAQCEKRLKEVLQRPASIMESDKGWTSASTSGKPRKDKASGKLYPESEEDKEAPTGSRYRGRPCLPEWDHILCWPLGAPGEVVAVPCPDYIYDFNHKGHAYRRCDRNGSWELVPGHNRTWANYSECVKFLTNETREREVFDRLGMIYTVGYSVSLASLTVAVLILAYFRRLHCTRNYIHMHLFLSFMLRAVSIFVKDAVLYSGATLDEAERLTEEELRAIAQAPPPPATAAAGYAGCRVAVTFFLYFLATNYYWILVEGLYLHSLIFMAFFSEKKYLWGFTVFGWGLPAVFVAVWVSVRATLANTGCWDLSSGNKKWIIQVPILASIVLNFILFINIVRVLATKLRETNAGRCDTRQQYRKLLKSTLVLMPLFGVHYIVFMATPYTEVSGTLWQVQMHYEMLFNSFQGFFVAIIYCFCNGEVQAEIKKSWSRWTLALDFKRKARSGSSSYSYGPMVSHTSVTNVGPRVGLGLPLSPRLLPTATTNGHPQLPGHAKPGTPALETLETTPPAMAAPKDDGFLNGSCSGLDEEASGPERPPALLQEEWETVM
How it was run: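 Saos-2 cells, grown two days after seeding at 50,000 cells/well, were exposed to peptide for 15 min at 37 °C in Tyrode's buffer with 0.1% BSA and 100 μM IBMX. After stopping with cold HCl, cAMP was measured by radioimmunoassay FlashPlate. EC50, pEC50, Hill slope and Emax came from a four-parameter sigmoidal fit.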

PTH receptor 1 = target: T3, PTH receptor 1 (Mus musculus, UniProt P41593); test: MC3T3-E1 cAMP efficacy assay; assay type: cell-based, murine; conditions: MC3T3-E1 cells; for EC50: cAMP, 100 μM IBMX, 37° C.; for Emax ± SEM [pmol/well]: maximally inducible cAMP
T3 construct: host or cells: MC3T3-E1 subclone 4
T3 sequence (P41593 27-591): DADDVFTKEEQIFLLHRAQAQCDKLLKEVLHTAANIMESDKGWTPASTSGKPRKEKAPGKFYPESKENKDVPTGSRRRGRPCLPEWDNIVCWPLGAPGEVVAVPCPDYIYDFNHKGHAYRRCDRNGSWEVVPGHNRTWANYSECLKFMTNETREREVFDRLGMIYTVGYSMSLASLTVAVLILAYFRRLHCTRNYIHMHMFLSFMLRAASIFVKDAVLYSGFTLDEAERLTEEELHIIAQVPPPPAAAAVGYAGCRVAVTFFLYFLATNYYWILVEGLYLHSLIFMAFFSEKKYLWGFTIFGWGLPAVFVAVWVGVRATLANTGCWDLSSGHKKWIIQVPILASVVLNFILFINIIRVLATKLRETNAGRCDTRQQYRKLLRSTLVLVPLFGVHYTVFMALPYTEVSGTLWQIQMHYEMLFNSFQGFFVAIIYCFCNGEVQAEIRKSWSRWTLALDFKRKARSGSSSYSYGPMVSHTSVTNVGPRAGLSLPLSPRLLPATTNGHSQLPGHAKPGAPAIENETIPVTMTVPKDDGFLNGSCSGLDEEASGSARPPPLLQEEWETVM
Experimental: MC3T3-E1 cells were seeded at 10,000 cells/well in 96-microtiter plates and grown overnight before the efficacy assays. On the day of analysis the growth medium was carefully removed by suction. Cells were washed once with 200 μl TB/0.1% […]. The buffer was replaced with 100 μl reaction mixture (±test peptide, +100 μM IBMX) and incubated at 37° C. for 13 min. The reaction was stopped by addition of 25 μl of ice-cold 0.5 M HCl. Cells were in the following incubated on ice for 60 min. 75 μl acetate-buffer were added to each well in a 96-well cAMP FlashPlate. […] FlashPlates were incubated overnight at 4° C., emptied by suction and counted in a TopCounter.
Determinations were performed in triplicates at all doses. Standards were included as single determinations, duplicates or triplicates in each experiment, preferentially on each plate.
Efficacy was evaluated in the concentration range from […].
Concentration-dependent cAMP responses were imported into GraphPad Prism vers. 4, transformed and plotted. Curves were fitted with a function for sigmoidal dose response curve non-linear fit Y=Bottom+(Top-Bottom)/(1+10̂((LogEC50-X))) where X is the logarithm of concentration and Y is the response. Y starts at Bottom and goes to Top with a sigmoid shape. pEC50 and the maximally inducible concentration of cAMP were evaluated. Overall statistical differences were analyzed using one-way ANOVA. Post-hoc comparisons were made by the use of Fisher's Least Significance Test. Results were considered significant, when p was lower than 0.05.

Saos-2 PTH1R [3] = target: Saos-2 PTH1R (UniProt Q03431); test: cell-based or functional assay
[4] = target: PTH receptor 1 on MC3T3-E1 cells (murine) (UniProt P41593); test: cell-based or functional assay
CYP2D6 [5] = target: T1, CYP2D6; test: cell-based or functional assay

T1 sequence (P10635 whole entry): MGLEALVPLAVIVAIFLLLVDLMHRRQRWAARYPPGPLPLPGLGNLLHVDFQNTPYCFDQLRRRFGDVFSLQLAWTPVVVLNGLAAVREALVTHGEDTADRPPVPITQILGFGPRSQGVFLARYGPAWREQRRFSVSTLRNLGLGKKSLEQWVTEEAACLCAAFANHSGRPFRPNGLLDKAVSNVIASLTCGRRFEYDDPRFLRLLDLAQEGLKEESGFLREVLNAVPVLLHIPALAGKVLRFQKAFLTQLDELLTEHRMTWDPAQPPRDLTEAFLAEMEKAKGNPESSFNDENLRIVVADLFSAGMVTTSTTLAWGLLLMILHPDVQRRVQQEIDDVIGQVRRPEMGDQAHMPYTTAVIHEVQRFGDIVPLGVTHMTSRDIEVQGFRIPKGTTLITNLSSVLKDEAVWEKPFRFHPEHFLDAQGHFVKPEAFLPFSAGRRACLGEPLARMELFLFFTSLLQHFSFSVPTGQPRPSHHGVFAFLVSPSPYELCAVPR

CC[C@H](C)[C@H](NC(=O)[C@H](CCC(=O)O)NC(=O)C(C)(C)NC(=O)[C@@H](NC(=O)C1(N)CCCC1)C(C)C)C(=O)N[C@@H](CCC(N)=O)C(=O)N[C@@H](CC(C)C)C(=O)N[C@@H](CCSC)C(=O)N[C@@H](Cc1c[nH]cn1)C(=O)N[C@@H](CCC(N)=O)C(=O)N[C@@H](CCCCNC(=N)N)C(=O)N[C@@H](C)C(=O)N[C@@H](CCCCN)C(=O)N[C@@H](Cc1c[nH]c2ccccc12)C(=O)N[C@@H](CC(C)C)C(=O)N[C@@H](CC(N)=O)C(=O)N[C@@H](CC(=O)O)C(N)=O [SEQ ID NO: 42, H-Ac5c-Val-Aib-Glu-Ile-Gln-Leu-Met-His-Gln-Har-Ala-Lys-Trp-Leu-Asn-Asp-NH2] (H-[Ac5c]V[Aib]EIQLMHQ[hArg]AKWLND-NH2)
CYP2D6 activity (% of vehicle) (CYP2D6 [1]; listed as 42): 29 % of vehicle
CYP2D6 activity (% of vehicle) (CYP2D6 [1]; listed as SEQ ID NO:42): 29 % of vehicle
EC50 (Saos-2 PTH1R [2]): 20.9 nM
Emax ± SEM (Saos-2 PTH1R [2]): 1.03 ± 0.07
EC50 (PTH receptor 1): 6.31 nM
Emax ± SEM [pmol/well] (PTH receptor 1): 5.7 ± 1.0 pmol/well

CC[C@H](C)[C@H](NC(=O)[C@H](CCC(=O)O)NC(=O)C(C)(C)NC(=O)[C@@H](NC(=O)C1(N)CCCC1)C(C)C)C(=O)N[C@@H](CCC(N)=O)C(=O)N[C@@H](CC(C)C)C(=O)N[C@@H](CCSC)C(=O)N[C@@H](Cc1c[nH]cn1)C(=O)N[C@@H](CCC(N)=O)C(=O)N[C@@H](CCCCNC(=N)N)C(=O)N[C@@H](C)C(=O)N[C@@H](CCCCN)C(=O)N[C@@H](Cc1c[nH]c2ccccc12)C(=O)N[C@@H](CC(C)C)C(=O)N[C@@H](CC(N)=O)C(=O)N[C@@H](CC(N)=O)C(N)=O [SEQ ID NO: 3, H-Ac5c-Val-Aib-Glu-Ile-Gln-Leu-Met-His-Gln-Har-Ala-Lys-Trp-Leu-Asn-Asn-NH2] (H-[Ac5c]V[Aib]EIQLMHQ[hArg]AKWLNN-NH2)
CYP2D6 activity (% of vehicle) (CYP2D6 [1]): 21 % of vehicle
EC50 (Saos-2 PTH1R [2]): 9.12 nM
Emax ± SEM (Saos-2 PTH1R [2]): 1.06 ± 0.06
EC50 (PTH receptor 1): 2.51 nM
Emax ± SEM [pmol/well] (PTH receptor 1): 5.5 ± 0.9 pmol/well

CC[C@H](C)[C@H](NC(=O)[C@H](CCC(=O)O)NC(=O)[C@H](CO)NC(=O)[C@@H](NC(=O)[C@@H](N)CO)C(C)C)C(=O)N[C@@H](CCC(N)=O)C(=O)N[C@@H](CC(C)C)C(=O)N[C@@H](CCSC)C(=O)N[C@@H](Cc1c[nH]cn1)C(=O)N[C@@H](CC(N)=O)C(=O)N[C@@H](CC(C)C)C(=O)NCC(=O)N[C@@H](CCCCN)C(=O)N[C@@H](Cc1c[nH]cn1)C(=O)N[C@@H](CC(C)C)C(=O)N[C@@H](CC(N)=O)C(=O)N[C@@H](CO)C(=O)N[C@@H](CCSC)C(=O)N[C@@H](CCC(=O)O)C(=O)N[C@@H](CCCNC(=N)N)C(=O)N[C@H](C(=O)N[C@@H](CCC(=O)O)C(=O)N[C@@H](Cc1c[nH]c2ccccc12)C(=O)N[C@@H](CC(C)C)C(=O)N[C@@H](CCCNC(=N)N)C(=O)N[C@@H](CCCCN)C(=O)N[C@@H](CCCCN)C(=O)N[C@@H](CC(C)C)C(=O)N[C@@H](CCC(N)=O)C(=O)N[C@@H](CC(=O)O)C(=O)N[C@H](C(=O)N[C@@H](Cc1c[nH]cn1)C(=O)N[C@@H](CC(N)=O)C(=O)N[C@@H](Cc1ccccc1)C(=O)O)C(C)C)C(C)C [SEQ ID NO: 32, reference compound]
agonism on PTH receptor cAMP signalling (PTH receptor 1): robust cAMP response
Emax ± SEM [pmol/well] (PTH receptor 1): 4.4 ± 0.4 pmol/well

B1: H-Ac5c-Val-Aib-Glu-Ile-Gln-Leu-Met-His-Gln-Har-Ala-Lys-Trp-Leu-Asn-Asn-NH2 (peptide)
chain: H-[Ac5c]V[Aib]EIQLMHQ[hArg]AKWLNN-NH2
SMILES: CC[C@H](C)[C@H](NC(=O)[C@H](CCC(=O)O)NC(=O)C(C)(C)NC(=O)[C@@H](NC(=O)C1(N)CCCC1)C(C)C)C(=O)N[C@@H](CCC(N)=O)C(=O)N[C@@H](CC(C)C)C(=O)N[C@@H](CCSC)C(=O)N[C@@H](Cc1c[nH]cn1)C(=O)N[C@@H](CCC(N)=O)C(=O)N[C@@H](CCCCNC(=N)N)C(=O)N[C@@H](C)C(=O)N[C@@H](CCCCN)C(=O)N[C@@H](Cc1c[nH]c2ccccc12)C(=O)N[C@@H](CC(C)C)C(=O)N[C@@H](CC(N)=O)C(=O)N[C@@H](CC(N)=O)C(N)=O
Emax, cAMP efficacy assay in Saos-2 cells (3T, trifluoroacetate salt) (relative to control (SEQ ID NO: 32)) (Saos-2 PTH1R [3]): 1.06
pEC50, cAMP efficacy assay in Saos-2 cells (3T, trifluoroacetate salt) (Saos-2 PTH1R [3]): 8.04 -log(M)
Emax, cAMP efficacy assay in MC3T3-E1 cells [4]: 5.5 pmol/well
agonist potency relative to SEQ ID NO: 2, cAMP in MC3T3-E1 cells [4]: 2 to 3 fold weaker
pEC50, cAMP efficacy assay in MC3T3-E1 cells [4]: 8.6 -log(M)
CYP2D6 activity (% of vehicle), dextrorphan formation rate in human liver microsomes, 10 µM peptide (CYP2D6 [5]): 21 % of vehicle
